From ChEMBL document CHEMBL1201862, “PubChem BioAssay data set” (2004)
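Following 48 hours of exposure in 96-well plates, responses at five concentrations were used to interpolate endpoints linearly. GI50: concentration for 50% inhibition of growth.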 Activity calls are given as the source filed them. No stated cut-off is given here; in the data, active = GI50 up to about 1.1 µM and inactive = higher.

Tests used:
Assay in all cases: NCI anticancer screen, dose series, 48 h
SF-295 = test system: SF-295
LOX IMVI = test system: LOX IMVI
HOP-92 = test system: HOP-92
U-251 = test system: U-251
SNB-75 = test system: SNB-75
NCI-H226 = test system: NCI-H226
M14 = test system: M14
TK-10 = test system: TK-10
A498 = test system: A498
HL-60 = test system: HL-60
SK-MEL-5 = test system: SK-MEL-5
KM12 = test system: KM12
HT-29 = test system: HT-29
UACC-62 = test system: UACC-62
SNB-19 = test system: SNB-19
SN12C = test system: SN12C
SW-620 = test system: SW-620
K562 = test system: K562
MCF7 = test system: MCF7

Measured: GI50

Cc1cc(-c2ccc(C(=O)C(Cl)(Cl)Cl)[nH]2)on1
inactive: SF-295 33.3 µM | LOX IMVI 24.9 µM | HOP-92 51.5 µM | U-251 15.4 µM | SNB-75 31.3 µM | NCI-H226 22.4 µM | M14 35.5 µM | TK-10 27.4 µM | A498 41.3 µM | HL-60 21.1 µM | SK-MEL-5 32.8 µM | KM12 12.2 µM | HT-29 28.4 µM | UACC-62 28.2 µM | SNB-19 40.8 µM | SN12C 16.4 µM | SW-620 50.6 µM | K562 18.3 µM

CCC(C)CN1C(=O)NC(Cc2ccccc2)C1=O (centres undefined)
inactive: SF-295 > 100 µM | LOX IMVI > 100 µM | HOP-92 19.4 µM | U-251 > 100 µM | SNB-75 > 100 µM | NCI-H226 > 100 µM | M14 > 100 µM | TK-10 > 100 µM | HL-60 > 10 µM | KM12 > 100 µM | HT-29 > 100 µM | SNB-19 > 100 µM | SN12C > 100 µM | SW-620 > 100 µM

COc1ccc2c(c1)[n+]([O-])c(C#N)c(N1CCN(c3ccc([N+](=O)[O-])cc3)CC1)[n+]2[O-]
inactive: SF-295 3.77 µM | LOX IMVI 2.36 µM | U-251 2.41 µM | SNB-75 8.53 µM | NCI-H226 10.7 µM | M14 4.52 µM | TK-10 9.68 µM | HL-60 5.42 µM | SK-MEL-5 3.59 µM | KM12 6.87 µM | HT-29 > 22.4 µM | UACC-62 3.76 µM | SNB-19 5.22 µM | SN12C 6.37 µM | SW-620 5.55 µM | K562 1.45 µM

COC(=O)[C@H]1N[C@@H](C(=O)OC)C23CCC[C@H]2CC[C@]1(C(OC)OC)C3
inactive: SF-295 > 100 µM | LOX IMVI > 100 µM | HOP-92 > 100 µM | U-251 > 100 µM | SNB-75 > 100 µM | NCI-H226 > 100 µM | M14 > 100 µM | TK-10 > 100 µM | A498 > 100 µM | HL-60 > 100 µM | SK-MEL-5 > 100 µM | KM12 > 100 µM | HT-29 > 100 µM | UACC-62 > 100 µM | SNB-19 > 100 µM | SN12C > 100 µM | SW-620 56.2 µM | K562 73.6 µM

O=c1c2cc3c(=O)n(CCc4ccccc4CO)c(=O)c3cc2c(=O)n1CCc1ccccc1CO
inactive: SF-295 46.6 µM | LOX IMVI > 100 µM | U-251 > 100 µM | SNB-75 > 100 µM | NCI-H226 > 100 µM | TK-10 > 100 µM | A498 > 100 µM | HL-60 > 100 µM | SK-MEL-5 > 100 µM | KM12 > 100 µM | HT-29 > 100 µM | UACC-62 > 100 µM | SNB-19 > 100 µM | SN12C > 100 µM | SW-620 > 100 µM | K562 > 100 µM

O=C(O)[C@@H](NS(=O)(=O)c1ccc(F)cc1)c1ccccc1
inactive: SF-295 > 100 µM | LOX IMVI > 100 µM | U-251 > 100 µM | SNB-75 > 100 µM | NCI-H226 > 100 µM | M14 > 100 µM | TK-10 > 100 µM | SK-MEL-5 > 100 µM | HT-29 > 100 µM | UACC-62 > 100 µM | SNB-19 > 100 µM | SN12C > 100 µM | SW-620 > 100 µM | K562 > 100 µM

CCOC(=O)c1c(N2CCCC2)ncn(Cc2ccccc2)c1=S
inactive: SF-295 > 100 µM | LOX IMVI > 100 µM | HOP-92 19.5 µM | U-251 > 100 µM | SNB-75 47.6 µM | NCI-H226 > 100 µM | M14 > 100 µM | TK-10 > 100 µM | A498 49.4 µM | HL-60 > 100 µM | SK-MEL-5 65.3 µM | KM12 > 100 µM | HT-29 > 100 µM | UACC-62 63 µM | SNB-19 > 100 µM | SN12C > 100 µM | SW-620 > 100 µM | K562 87.5 µM

C=C(N=[N+]=[N-])c1cn(C2CC(O)C(CO)O2)c(=O)[nH]c1=O (centres undefined)
inactive: SF-295 > 100 µM | LOX IMVI > 100 µM | HOP-92 > 100 µM | U-251 > 100 µM | SNB-75 > 100 µM | NCI-H226 > 100 µM | M14 > 100 µM | TK-10 > 100 µM | HL-60 > 100 µM | SK-MEL-5 > 100 µM | KM12 > 100 µM | HT-29 > 100 µM | UACC-62 > 100 µM | SNB-19 > 100 µM | SN12C > 100 µM | SW-620 > 100 µM | K562 > 100 µM

NNC1=N/C(=C\c2ccccc2O)C(=O)N1
inactive: SF-295 36 µM | LOX IMVI 24.5 µM | HOP-92 > 100 µM | U-251 33.3 µM | SNB-75 > 100 µM | NCI-H226 47.5 µM | M14 27.2 µM | TK-10 60.1 µM | A498 > 100 µM | HL-60 14.6 µM | SK-MEL-5 35 µM | KM12 35.5 µM | HT-29 53.6 µM | UACC-62 48.1 µM | SNB-19 73.3 µM | SN12C 40.7 µM | SW-620 47.1 µM | K562 28.1 µM

CC12C(=CC(=O)CC1SCCS(=O)(=O)O)C(C#N)=C(N)N2c1ccc(Cl)c(Cl)c1 (centres undefined)
inactive: SF-295 > 100 µM | LOX IMVI > 100 µM | HOP-92 30.6 µM | U-251 > 100 µM | SNB-75 > 100 µM | NCI-H226 > 100 µM | TK-10 > 100 µM | A498 > 100 µM | HL-60 > 100 µM | SK-MEL-5 > 100 µM | KM12 > 100 µM | HT-29 > 100 µM | UACC-62 > 100 µM | SNB-19 > 100 µM | SN12C > 100 µM | SW-620 78.9 µM | K562 > 100 µM

COc1cccc(/C=N/[N-]C(=S)Nc2ccccc2)c1[O-].O.[Zn+2]
inactive: SF-295 76.7 µM | LOX IMVI 53.7 µM | HOP-92 73.5 µM | U-251 60.4 µM | SNB-75 43.7 µM | NCI-H226 37.8 µM | M14 44.5 µM | TK-10 > 100 µM | HL-60 28.8 µM | SK-MEL-5 61.1 µM | KM12 40.6 µM | HT-29 72.4 µM | UACC-62 19.7 µM | SNB-19 66.1 µM | SN12C > 100 µM | SW-620 56.4 µM | K562 42 µM

CC(=O)OCCN(C1=NCCN1)/[N+](C=c1ccc(=C=[N-])cc1)=C/c1ccc(C#N)cc1
inactive: SF-295 > 100 µM | LOX IMVI > 100 µM | U-251 > 100 µM | SNB-75 > 100 µM | NCI-H226 > 100 µM | M14 > 100 µM | TK-10 > 100 µM | SK-MEL-5 > 100 µM | KM12 > 100 µM | MCF7 > 100 µM | HT-29 > 100 µM | UACC-62 > 100 µM | SNB-19 > 100 µM | SN12C > 100 µM | SW-620 > 100 µM | K562 > 100 µM
